In patent US20230116972A1, “CD38 MODULATORS AND METHODS OF USE THEREOF” (Cytokinetics, Inc., priority 2021, published 2023):

What was measured:
human CD38 = molecular target: T1, human CD38 (Homo sapiens, UniProt P28907); assay: human recombinant CD38 enzyme assay (hydrolysis of NAD+); type: biochemical; settings: human recombinant CD38, 0.4 nM enzyme, 62.5 μM NAD+; read-out: hCD38 BioChem IC50
T1 sequence (P28907 1-300): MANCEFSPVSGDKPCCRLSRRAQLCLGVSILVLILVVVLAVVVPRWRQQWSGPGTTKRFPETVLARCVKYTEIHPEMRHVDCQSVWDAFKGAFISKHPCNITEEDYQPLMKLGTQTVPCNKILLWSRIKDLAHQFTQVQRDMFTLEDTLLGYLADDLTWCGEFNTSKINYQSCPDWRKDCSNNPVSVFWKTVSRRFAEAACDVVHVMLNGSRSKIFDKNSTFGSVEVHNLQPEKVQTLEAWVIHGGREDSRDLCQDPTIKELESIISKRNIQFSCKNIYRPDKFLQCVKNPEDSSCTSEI
In short: (§1)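 Residual substrate after a one-hour room-temperature incubation of recombinant CD38 with NAD+ and test compound is measured by an ADH/diaphorase coupled resorufin signal (540 nm excitation, 590 nm emission); reduced NAD+ consumption reflects inhibition.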

mouse CD38 = molecular target: T2, mouse CD38 (Mus musculus, UniProt P56528); assay: mouse recombinant CD38 enzyme assay (hydrolysis of NAD+); type: biochemical; settings: read-out: mCD38 BioChem IC50
T2 sequence (P56528 1-304): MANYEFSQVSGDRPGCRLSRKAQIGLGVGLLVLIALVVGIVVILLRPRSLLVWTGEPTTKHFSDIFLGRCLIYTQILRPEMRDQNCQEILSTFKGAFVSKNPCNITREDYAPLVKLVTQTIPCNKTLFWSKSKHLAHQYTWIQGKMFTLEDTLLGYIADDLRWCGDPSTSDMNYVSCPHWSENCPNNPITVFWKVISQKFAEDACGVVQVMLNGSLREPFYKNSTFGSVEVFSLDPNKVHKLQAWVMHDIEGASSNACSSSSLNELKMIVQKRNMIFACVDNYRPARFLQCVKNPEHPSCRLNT
In short: as §1

[1] = molecular target: T3, endogenous CD38 in HL60 cells (Homo sapiens, UniProt P28907); assay: cellular CD38 assay in HL60 cells (cellular NAD levels); type: cell-based; settings: all-trans retinoic acid, 24 hours, read-out: hCD38 HL60 ATRA NAD Cell Diaphorase IC50
T3 construct: endogenous in cells; host or cells: HL60 (leukemic cells, treated with all-trans retinoic acid)
T3 sequence (P28907 1-300): T1 sequence (P28907 1-300)
Experimental: The compounds described herein were also assayed for their ability to inhibit the endogenous CD38 in a native cellular environment in the cellular CD38 assay, which measures the ability of the compound to modulate cellular NAD levels. […] The assays were initiated by plating 20 μL of HL60 cells in culture medium, at a density of 20000 cells per well to a 384-well Corning™ Multiwell Plates. Compounds in DMSO were added to the plates in a volume of 120 nL using the Labcyte Echo Liquid Handlers. […] The plates are then incubated for 24 hours. 50 μL of a readout-solution containing 0.2 U/mL Diaphorase enzyme, 40 uM resazurin, 10 uM FMN, 0.8 U/mL Alcohol dehydrogenase, 3% ethanol, 0.4 mg/mL bovine serum albumin, 0.2% Triton X-100 in 100 mM Tris-HCl, 30 mM EDTA, pH 8.4. The plates were read for fluorescence (Excitation/Emission=540 nm/590 nm) using an EnVision plate reader after 60 mins of incubation at ambient temperature. Note that, in Table 5, the “Compound No” corresponds to the compound numbers in Table 1.

| SMILES | IC50 (human CD38) | IC50 (mouse CD38) | IC50 [1] |
| --- | --- | --- | --- |
| O=C(Nc1cccnc1)c1cc(-n2ccnc2)ccn1 [Compound 1, 4-(1H-imidazol-1-yl)-N-(pyridin-3-yl)picolinamide] | 243 nM | 358 nM | 2000 nM |
| Cc1ccc(NC(=O)c2cc(-n3ccnc3)ccn2)cn1 [Compound 2, 4-(1H-imidazol-1-yl)-N-(6-methylpyridin-3-yl)picolinamide] | 345 nM | 1010 nM | 3060 nM |
| O=C(Nc1cncc(F)c1)c1cc(-n2ccnc2)ccn1 [Compound 3, N-(5-fluoropyridin-3-yl)-4-(1H-imidazol-1-yl)picolinamide] | 1090 nM | 234 nM | 6780 nM |
| O=C(Nc1ccccn1)c1cc(-n2ccnc2)ccn1 [Compound 4, 4-(1H-imidazol-1-yl)-N-(pyridin-2-yl)picolinamide] | 1130 nM | 491 nM | 8510 nM |
| O=C(Nc1ccccc1)c1cc(-n2ccnc2)ccn1 [Compound 5, 4-(1H-imidazol-1-yl)-N-phenylpicolinamide] | 313 nM | 420 nM | 7820 nM |
| O=C(Nc1ccc(C(F)(F)F)nc1)c1cc(-n2ccnc2)ccn1 [Compound 6, 4-(1H-imidazol-1-yl)-N-(6-(trifluoromethyl)pyridin-3-yl)picolinamide] | 352 nM | 1580 nM | 8690 nM |
| O=C(Nc1ccncc1)c1cc(-n2ccnc2)ccn1 [Compound 7, 4-(1H-imidazol-1-yl)-N-(pyridin-4-yl)picolinamide] | 549 nM | 223 nM | 4460 nM |
| O=C(Nc1cccnc1)c1cccc(-n2ccnc2)c1 [Compound 9, 3-(1H-imidazol-1-yl)-N-(pyridin-3-yl)benzamide] | 1240 nM | 432 nM | 5980 nM |
| O=C(Nc1cccnc1)c1ccnc(-n2ccnc2)c1 [Compound 10, 2-(1H-imidazol-1-yl)-N-(pyridin-3-yl)isonicotinamide] | 1190 nM | 433 nM | 4350 nM |
| O=C(Nc1cccnc1)c1cccc(-c2cncs2)n1 [Compound 11, N-(pyridin-3-yl)-6-(thiazol-5-yl)picolinamide] | 2110 nM | 741 nM | 8050 nM |
| O=C(NC1CCOCC1)c1cccc(-n2ccnc2)n1 [Compound 12, 6-(1H-imidazol-1-yl)-N-(tetrahydro-2H-pyran-4-yl)picolinamide] | 296 nM | 122 nM | 3990 nM |
| O=C(Nc1ccc(C(F)(F)F)nc1)c1cccc(-n2ccnc2)n1 [Compound 13, 6-(1H-imidazol-1-yl)-N-(6-(trifluoromethyl)pyridin-3-yl)picolinamide] | 6 nM | 8 nM | 568 nM |
| COCCO[C@H]1CC[C@H](NC(=O)c2cccc(-n3ccnc3)n2)CC1 [Compound 14, 6-(1H-imidazol-1-yl)-N-(4-(2-methoxyethoxy)cyclohexyl)picolinamide] | 91 nM | 17 nM | 3290 nM |
| O=C(NC12CC(O)(C1)C2)c1cccc(-n2ccnc2)n1 [Compound 15, N-(3-hydroxybicyclo[1.1.1]pentan-1-yl)-6-(1H-imidazol-1-yl)picolinamide] | 1140 nM | 748 nM | 9960 nM |
| O=C(NC12CC(C1)C2)c1cccc(-n2ccnc2)n1 [Compound 16, N-(bicyclo[1.1.1]pentan-1-yl)-6-(1H-imidazol-1-yl)picolinamide] | 1510 nM | 760 nM | 7390 nM |

More lines, now with the values ahead:

| IC50 (human CD38) | IC50 (mouse CD38) | IC50 [1] | SMILES |
| --- | --- | --- | --- |
| 67 nM | 27 nM | 1400 nM | O=C(Nc1ccccc1F)c1cccc(-n2ccnc2)n1 [Compound 17, N-(2-fluorophenyl)-6-(1H-imidazol-1-yl)picolinamide] |
| 6 nM | 6 nM | 415 nM | O=C(Nc1cccc(F)c1)c1cccc(-n2ccnc2)n1 [Compound 18, N-(3-fluorophenyl)-6-(1H-imidazol-1-yl)picolinamide] |
| 7 nM | 9 nM | 345 nM | O=C(Nc1ccc(F)cc1)c1cccc(-n2ccnc2)n1 [Compound 19, N-(4-fluorophenyl)-6-(1H-imidazol-1-yl)picolinamide] |
| 9 nM | 8 nM | 365 nM | Cc1ccc(NC(=O)c2cccc(-n3ccnc3)n2)cn1 [Compound 20, 6-(1H-imidazol-1-yl)-N-(6-methylpyridin-3-yl)picolinamide] |
| 3 nM | 3 nM | 273 nM | Cc1cc(NC(=O)c2cccc(-n3ccnc3)n2)ccn1 [Compound 21, 6-(1H-imidazol-1-yl)-N-(2-methylpyridin-4-yl)picolinamide] |
| 496 nM | 70 nM | 802 nM | Cc1ccc(C(=O)Nc2cccnc2)nc1-n1ccnc1 [Compound 22, 6-(1H-imidazol-1-yl)-5-methyl-N-(pyridin-3-yl)picolinamide] |
| 614 nM | 110 nM | 3890 nM | CO[C@H]1C[C@H](NC(=O)c2cccc(-n3ccnc3)n2)C1 [Compound 23, 6-(1H-imidazol-1-yl)-N-(3-methoxycyclobutyl)picolinamide] |
| 2.5 nM | 1 nM |  | Cn1cncc1-c1nc(C(=O)Nc2ccc(C(F)F)nc2)cc(C2CC3(COC3)C2)n1 [Compound 348, N-(6-(difluoromethyl)pyridin-3-yl)-2-(1-methyl-1H-imidazol-5-yl)-6-(2-oxaspiro[3.3]heptan-6-yl)pyrimidine-4-carboxamide] |
| 128 nM | 28.2 nM |  | O=C(N[C@H]1CC[C@H](O)CC1)c1nc(C(F)F)cc(-n2ccnc2)n1 [Compound 349, 4-(difluoromethyl)-N-((1r,4r)-4-hydroxycyclohexyl)-6-(1H-imidazol-1-yl)pyrimidine-2-carboxamide] |
| 107 nM | 11.3 nM |  | CO[C@H]1CC[C@H](NC(=O)c2nc(-c3cncn3C)cc(C(F)F)n2)CC1 [Compound 350, 4-(difluoromethyl)-N-((1r,4r)-4-methoxycyclohexyl)-6-(1-methyl-1H-imidazol-5-yl)pyrimidine-2-carboxamide] |
| 676 nM | 267 nM |  | COCCO[C@@H]1CC[C@@H](NC(=O)c2nccc(-c3cncn3C)n2)C1 [Compound 351, N-((1R,3R)-3-(2-methoxyethoxy)cyclopentyl)-4-(1-methyl-1H-imidazol-5-yl)pyrimidine-2-carboxamide] |
| 25.4 nM | 20.6 nM |  | COCCO[C@@H]1CC[C@@H](NC(=O)c2cc(C3CCOCC3)nc(-c3cncn3C)n2)C1 [Compound 352, N-((1R,3R)-3-(2-methoxyethoxy)cyclopentyl)-2-(1-methyl-1H-imidazol-5-yl)-6-(tetrahydro-2H-pyran-4-yl)pyrimidine-4-carboxamide] |
| 20.8 nM | 4.2 nM |  | COCCO[C@H]1CC[C@H](NC(=O)c2cc(C3CCOCC3)nc(-c3cncn3C)n2)C1 [Compound 353, N-((1S,3S)-3-(2-methoxyethoxy)cyclopentyl)-2-(1-methyl-1H-imidazol-5-yl)-6-(tetrahydro-2H-pyran-4-yl)pyrimidine-4-carboxamide] |
| 4.2 nM | 16.9 nM |  | O=C(Nc1ccc(OC(F)F)nc1)c1nccc(-n2ccnc2)n1 [Compound 354, N-(6-(difluoromethoxy)pyridin-3-yl)-4-(1H-imidazol-1-yl)pyrimidine-2-carboxamide] |
| 3.5 nM | 1.1 nM |  | COc1ccc(NC(=O)c2cc(C3CCOCC3)nc(-c3cncn3C)n2)cn1 [Compound 355, N-(6-methoxypyridin-3-yl)-2-(1-methyl-1H-imidazol-5-yl)-6-(tetrahydro-2H-pyran-4-yl)pyrimidine-4-carboxamide] |
| 4.3 nM | 10 nM |  | COc1ccc(NC(=O)c2nccc(-c3cncn3C)n2)cn1 [Compound 356, N-(6-methoxypyridin-3-yl)-4-(1-methyl-1H-imidazol-5-yl)pyrimidine-2-carboxamide] |
